These results are taken from PMC10699557, “A recombinant approach for stapled peptide discovery yields inhibitors of the RAD51 recombinase” (Chemical Science, 2023).

Numbered stars: 1 amine (or outer) side, 2 acyl side, 3 side chain; on linkers, the order of the positions; unused ones are H or OH. Bridge positions count the residues as written; N and C are the ends. Peptide text beside a SMILES is read from it. X1 = Nc1nc(CC[*:1])cc(CC[*:2])n1

For test [1], the system named is RAD51:dT60 nucleoprotein filament (full-length human RAD51). The test can be described thus: Electrophoretic mobility shift assay (EMSA) of nucleoprotein filament disruption. Format: biochemical. Conditions: 5 μM full-length human RAD51, 100 nM FAM-dT60, varying peptide concentrations; 50 mM HEPES pH 7.4, 1 mM ATP. How it is done:
We evaluated the effect of stapled peptides SP2, SP24 and SP30 on the nucleoprotein filament using electrophoretic mobility shift assay (EMSA, Fig. 3D). A fluorescently labelled dT60 oligonucleotide was incubated with full-length RAD51, after which the peptides were added at different concentrations before separating the products on a polyacrylamide gel.
(§1) Isothermal titration calorimetry
(§2) Peptides were resuspended in MilliQ water to 10 times the desired final concentration.
This was then diluted 10x with the ITC buffer to obtain the final titrant solution (20 mM CHES pH 9.5, 150 mM NaCl, 0.1% Tween-20). HumRadA22 was buffer-exchanged on a NAP-5 desalting column (Cytiva) into ITC buffer and protein concentration was adjusted to 10:9 of the desired final value. One ninth volume of MilliQ water was added to the solution to bring the protein concentration to the desired final value, while maintaining identical buffer:MilliQ volume proportions in both the syringe and the cell. ITC was carried out using a Microcal ITC200 or Malvern PEAQ ITC instruments at 25°C with a 5.00 μCal reference power DP value, stirring speed of 500-750 rpm, 2 sec filter period. Injection spacing, speed and volume, cell/syringe concentrations as well as the number of injections were adjusted for each peptide and its binding properties. ITC data were fitted using a single-site binding model using the Microcal ITC data analysis program in the Origin 7.0 package. Data points affected by baseline spikes were omitted from the analysis.
Circular dichroism spectroscopy
(§3) Dried peptides were dissolved in MilliQ water to 0.3 mg/ml, and then two-fold diluted in 20 mM sodium phosphate, pH 7.4, giving a final solution of 0.15 mg/ml peptide in 10 mM sodium phosphate. CD spectra of selected peptides were recorded on an AVIV 410 circular dichroism spectropolarimeter using a 1 mm path length quartz cuvette. […]
(§4) The ability of linear and stapled BRC repeat peptides to dissociate RAD51-ssDNA nucleofilament was evaluated using an electrophoretic mobility shift assay (EMSA). […]
Background: In EMSA bound probe runs differently from free probe, usually more slowly.

The target of another test is HumRadA22 (Pyrococcus furiosus, UniProt O74036). Kind of test: Isothermal titration calorimetry (ITC) of peptide binding. Also on record: species or system archaeal RadA mutant with human Rad51 surface residues. Conditions: Fig. S3; stapled Arg9-fused peptide. As for the experimental part:
We then evaluated the binding of free peptides to HumRadA22 using FP competition assay and isothermal titration calorimetry (Table 1 and Fig. 3B and C). […] All three peptides SP2, SP24 and SP30 bound with similar low-nanomolar affinities in ITC, and the binding appears to be slightly weaker relative to the linear BRC8-2 template (Fig. 3C).
as §1, §2
This was then diluted 10x with the ITC buffer to obtain the final titrant solution (20 mM CHES pH 9.5, 150 mM NaCl, 0.1% Tween-20). HumRadA22 was buffer-exchanged on a NAP-5 desalting column (Cytiva) into ITC buffer and protein concentration was adjusted to 10:9 of the desired final value. […]
as §3, §4

As for `CC(C)C[C@@H]1NC(=O)[C@H](CCCCN)NC(=O)[C@H](CCCCN)NC(=O)CNC(=O)[C@H](CO)NC(=O)[C@H](C)NC(=O)[C@H]([C@@H](C)O)NC(=O)[C@H](CO)NC(=O)[C@H](Cc2ccccc2)NC(=O)CNC(=O)[C@H](CO)NC(=O)[C@@H](NC(=O)CN)CSCCc2cc(nc(N)n2)CCSC[C@@H](C(=O)N[C@@H](CCC(N)=O)C(=O)N[C@@H](CCCCN)C(=O)N[C@@H](C)C(=O)N[C@H](C(=O)N[C@@H](CCCCN)C(=O)N[C@@H](CC(C)C)C(=O)N[C@@H](Cc2ccccc2)C(=O)N[C@@H](CO)C(=O)NCC(=O)O)C(C)C)NC(=O)[C@H](C)NC(=O)[C@H](CCC(N)=O)NC(=O)[C@H]([C@@H](C)O)NC(=O)[C@H](CO)NC(=O)[C@H](C(C)C)NC(=O)[C@H](CC(N)=O)NC1=O` [SP30] (H-GCSGFSTASGKKLNVSTQACQKAVKLFSG-OH; linker 2-20 via X1), the “Depolymerisation of RAD51 from single-stranded DNA (EMSA)” value in test [1] was “depolymerise RAD51 from single-stranded DNA to similar extent”.

In the case of `CC(C)C[C@@H]1NC(=O)[C@H](CCCCN)NC(=O)[C@H](CCCCN)NC(=O)CNC(=O)[C@H](CO)NC(=O)[C@H](C)NC(=O)[C@H]([C@@H](C)O)NC(=O)[C@H](CO)NC(=O)[C@H](Cc2ccccc2)NC(=O)CNC(=O)[C@H](CO)NC(=O)[C@@H](NC(=O)CNC(=O)CNC(=O)[C@H](CCCNC(=N)N)NC(=O)[C@H](CCCNC(=N)N)NC(=O)[C@H](CCCNC(=N)N)NC(=O)[C@H](CCCNC(=N)N)NC(=O)[C@H](CCCNC(=N)N)NC(=O)[C@H](CCCNC(=N)N)NC(=O)[C@H](CCCNC(=N)N)NC(=O)[C@H](CCCNC(=N)N)NC(=O)[C@H](CCCNC(=N)N)NC(=O)CN)CSCCc2cc(nc(N)n2)CCSC[C@@H](C(=O)N[C@@H](CCC(N)=O)C(=O)N[C@@H](CCCCN)C(=O)N[C@@H](C)C(=O)N[C@H](C(=O)N[C@@H](CCCCN)C(=O)N[C@@H](CC(C)C)C(=O)N[C@@H](Cc2ccccc2)C(=O)N[C@@H](CO)C(=O)NCC(=O)O)C(C)C)NC(=O)[C@H](C)NC(=O)[C@H](CCC(N)=O)NC(=O)[C@H]([C@@H](C)O)NC(=O)[C@H](CO)NC(=O)[C@H](C(C)C)NC(=O)[C@H](CC(N)=O)NC1=O` [SP31] (H-GRRRRRRRRRGGCSGFSTASGKKLNVSTQACQKAVKLFSG-OH; linker 13-31 via X1), the “Binding affinity towards HumRadA22 by ITC (in words)” value at HumRadA22 is on record as “high affinity”.
